A short description of test [1]: Expert sensory testing of racemic menthol vs (−)-menthol in toothpaste (CREST Cavity) with standard spearmint flavor. Format: in vivo. As for the experimental part:
In separate, unpublished internal experiments, perceptual experiences of racemic menthol are quantified via expert sensory testing. The use of a standard spearmint flavor (minimizing extra menthol contribution) compared racemic menthol to (−)-menthol in a toothpaste formulation (CREST Cavity). There are several sensory observations taken from these experiments. […] These aromatic notes appear during brushing and disappear after 5-10 minutes post expectoration and are more pronounced as concentrations increase.

A short description of test [2]: Comparison of cooling attributes of (−)-menthol and racemic menthol in toothpaste (CREST Cavity formulation). Format: in vivo. An excerpt: The following data helps support the use of racemic menthol to reduce costs of mint flavor compositions herein described. From internal unpublished research, Table B compares replacing (−)-menthol with a racemic menthol in a 1:1 in a toothpaste formulation. Such a direct replacement is not preferred given the reduced cooling profile and olfactory differences; however, a portion of L-menthol is preferably replaced by racemic-menthol to gain cost efficiency while minimizing impact to the overall mint flavor profiles.
Table B is a comparison of attributes between (−)-menthol and racemic menthol in a toothpaste context (using CREST Cavity formulation).
This value represents the concentration of a coolant where 50% of its maximal cooling is observed.

Molecules are shown by their SMILES.

Regarding `CC1CCC(C(C)C)C(O)C1` (racemic) [Racemic Menthol], the “less potent than (−)-menthol for cooling” value in test [1] was 25-30%. Besides, in test [2], the “Maximum Longevity” value is listed as “Up to 20 minutes”, the “Potency compared to L-Menthol” value was ~0.65-0.7x and the “Time Point at Maximum Cooling” value was around 1 min. Moreover, the “Maximum Cooling (0-60 scale)” value in test [2] (60 = greatest amount of cooling, 0 = least) turned out to be 35. Moreover, the “EC 50” value in test [2] (concentration of coolant giving 50% of its maximal cooling) is 1,250 to 1,500 parts per million.
